# “And” between values parts separate entries of the source, which are not always exact repeats. Equal values may be shown once.
# Assay: xn = mol fraction of the nth substance listed
# Details: 298.03 K, 101.3 kPa, Liquid, Taylor dispersion method
SMILES,binary diffusion coefficient (x1 = 0),binary diffusion coefficient (x2 = 0)
CCOS(=O)(=O)[O-].CCn1cc[n+](C)c1 [1-ethyl-3-methylimidazolium ethyl sulfate] + O,9.62e-08 m2/s and 9.15e-08 m2/s and 9.84e-08 m2/s and 9.79e-08 m2/s,
CCCC[n+]1ccn(C)c1.O=S(=O)([N-]S(=O)(=O)C(F)(F)F)C(F)(F)F + O,,4e-08 m2/s [middle of 4 runs]
CCCCn1cc[n+](C)c1.N#CN=C=[N-] [1-butyl-3-methylimidazolium dicyanamide] + O,,2.08e-08 m2/s and 2.13e-08 m2/s and 2.11e-08 m2/s and 2.03e-08 m2/s and 1.98e-08 m2/s and 2.05e-08 m2/s and 2e-08 m2/s and 2.28e-08 m2/s

# — the NIST ThermoML archive (doi:10.1016/j.fluid.2010.03.010)
